“And” between values parts separate entries of the source, which are not always exact repeats. Equal entries are not always repeated. Toxic doses and inconclusive results are not listed. No stated cut-off is given here; in the data, active means T/C of 150% or more; inactive means T/C below 125%.
System: L1210 leukemia ip in BDF1 mice, survival T/C
Assay: NCI In Vivo Anticancer Drug Screen. Data for tumor model L1210 Leukemia (intraperitoneal) in B6D2F1 (BDF1) mice
Conditions: endpoint: mean survival time, higher = longer survival
Method in brief: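 Transplantable tumor model; survival measured in treated vs vehicle control mice. Value = treated/control.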

[1] = dose: 50.0 mg/kg/injection, schedule: Q01DX001 (ip), vehicle: saline
[2] = dose: 100.0 mg/kg/injection, schedule: Q01DX001 (ip), vehicle: saline
[3] = dose: 100.0 mg/kg/injection, schedule: Q04DX003 (ip), vehicle: saline with Tween-80
[4] = dose: 200.0 mg/kg/injection, schedule: Q04DX003 (ip), vehicle: saline with Tween-80
[5] = dose: 400.0 mg/kg/injection, schedule: Q04DX003 (ip), vehicle: saline with Tween-80
[6] = dose: 100.0 mg/kg/injection, schedule: Q04DX002 (ip), vehicle: Klucel (hydroxypropylcellulose) (HPC)
[7] = dose: 200.0 mg/kg/injection, schedule: Q04DX002 (ip), vehicle: Klucel (hydroxypropylcellulose) (HPC)
[8] = dose: 400.0 mg/kg/injection, schedule: Q04DX002 (ip), vehicle: Klucel (hydroxypropylcellulose) (HPC)
[9] = dose: 100.0 mg/kg/injection, schedule: Q01DX009 (ip), vehicle: Klucel (hydroxypropylcellulose) (HPC)
[10] = dose: 400.0 mg/kg/injection, schedule: Q01DX009 (ip), vehicle: Klucel (hydroxypropylcellulose) (HPC)
[11] = dose: 100.0 mg/kg/injection, schedule: Q01DX001 (ip), vehicle: Klucel (hydroxypropylcellulose) (HPC)
[12] = dose: 100.0 mg/kg/injection, schedule: Q01DX001 (ip), vehicle: carboxymethylcellulose (CMC)
[13] = dose: 200.0 mg/kg/injection, schedule: Q01DX001 (ip), vehicle: carboxymethylcellulose (CMC)
[14] = dose: 400.0 mg/kg/injection, schedule: Q01DX001 (ip), vehicle: carboxymethylcellulose (CMC)

Measured: T/C

CC(C)(C)C1CCCC(=O)C1 (stereo not drawn)
inactive: [1] 101 % of control | [2] 89 % of control

O=C(NC1CCC(CC2CCCCC2)CC1)c1ccccc1 (stereo not drawn)
inactive: [3] 92 % of control | [4] 97 % of control | [5] 113 % of control

Cc1sc2ccc(-c3ccccc3)cc2[n+]1C
inactive: dose: 75.0 mg/kg/injection, schedule: Q01DX001 (ip), vehicle: saline 105 % of control | dose: 150.0 mg/kg/injection, schedule: Q01DX001 (ip), vehicle: saline 102 % of control | dose: 300.0 mg/kg/injection, schedule: Q01DX001 (ip), vehicle: saline 107 % of control

O=C1c2cc(Br)ccc2NC1(c1c[nH]c2ccc(Br)cc12)c1c[nH]c2ccc(Br)cc12
inactive: [1] 100 % of control | [2] 96 % of control | dose: 200.0 mg/kg/injection, schedule: Q01DX001 (ip), vehicle: saline 93 % of control | dose: 400.0 mg/kg/injection, schedule: Q01DX001 (ip), vehicle: saline 93 % of control

CC1CCN(P(c2ccccc2)N2CCC(C)CC2)CC1
inactive: [6] 97 % of control | [7] 97 % of control | [8] 100 % of control

CC1CCOC(C)(CCl)O1 (stereo not drawn)
inactive: dose: 100.0 mg/kg/injection, schedule: Q04DX002 (ip), vehicle: saline with Tween-80 98 % of control | dose: 200.0 mg/kg/injection, schedule: Q04DX002 (ip), vehicle: saline with Tween-80 95 % of control | dose: 400.0 mg/kg/injection, schedule: Q04DX002 (ip), vehicle: saline with Tween-80 98 % of control

O=C(Nc1ccccc1Cl)OC/C=C/c1ccccc1
inactive: [9] 103 % of control | [6] 88 % of control | dose: 200.0 mg/kg/injection, schedule: Q01DX009 (ip), vehicle: Klucel (hydroxypropylcellulose) (HPC) 96 % of control | [7] 88 % of control | [10] 108 % of control | [8] 100 % of control

CCCCN1C(=O)C(c2ccccc2)C2(CCN(C)CC2)C1=O (stereo not drawn)
inactive: dose: 25.0 mg/kg/injection, schedule: Q01DX001 (ip), vehicle: Klucel (hydroxypropylcellulose) (HPC) 93 % of control | dose: 50.0 mg/kg/injection, schedule: Q01DX001 (ip), vehicle: Klucel (hydroxypropylcellulose) (HPC) 91 % of control | [11] 97 % of control and 98 % of control

C1C[S][Sn]2([S]CCO1)[S]CCOCC[S]2
inactive: dose: 12.5 mg/kg/injection, schedule: Q01DX001 (ip), vehicle: saline with Tween-80 94 % of control | dose: 25.0 mg/kg/injection, schedule: Q01DX001 (ip), vehicle: saline with Tween-80 106 % of control | dose: 50.0 mg/kg/injection, schedule: Q01DX001 (ip), vehicle: saline with Tween-80 87 % of control

CSc1nc(N)c(N=Nc2ccc(S(=O)(=O)Nc3cc(C)nc(C)n3)cc2)c(=O)[nH]1
inactive: [12] 103 % of control | [13] 95 % of control | [14] 97 % of control

O=[N+]([O-])c1cc([N+](=O)[O-])c(Br)cc1Cl
inactive: dose: 10.0 mg/kg/injection, schedule: Q04DX003 (ip), vehicle: Klucel (hydroxypropylcellulose) (HPC) 93 % of control | dose: 20.0 mg/kg/injection, schedule: Q04DX003 (ip), vehicle: Klucel (hydroxypropylcellulose) (HPC) 96 % of control

CSc1ccc(NC(=O)C(O)C(O)C(O)C(O)CO)cc1 (stereo not drawn)
inactive: [3] 89 % of control | [4] 100 % of control | [5] 95 % of control

Nc1ccc(O)c2ncccc12
inactive: dose: 6.25 mg/kg/injection, schedule: Q01DX009 (ip), vehicle: saline 95 % of control | dose: 12.5 mg/kg/injection, schedule: Q01DX009 (ip), vehicle: saline 92 % of control | [1] 98 % of control

O=C(O)CN(CCN(CC(=O)O)CC(=O)O)CCN(CC(=O)O)CC(=O)O
inactive: [12] 93 % of control | [14] 96 % of control

N#Cc1cc2ccccc2nc1N
inactive: [12] 98 % of control | [13] 93 % of control | [14] 98 % of control

Cc1ccc(N=Nc2cc(C)c(N)cc2N)c(S(=O)(=O)O)c1
inactive: dose: 100.0 mg/kg/injection, schedule: Q04DX003 (ip), vehicle: other 96 % of control | dose: 200.0 mg/kg/injection, schedule: Q04DX003 (ip), vehicle: other 105 % of control | dose: 400.0 mg/kg/injection, schedule: Q04DX003 (ip), vehicle: other 103 % of control

CCOc1cc(OCC)c(OCC)cc1C=C(C#N)C#N
inactive: [9] 91 % of control | [10] 88 % of control

CN1CCC2(CC1)C(=O)N(CC1COc3ccccc3O1)C(=O)C2c1ccccc1 (stereo not drawn)
inactive: [11] 99 % of control

C=C(Br)CNC(=O)Nc1cccc2c1CCCC2
inactive: dose: 100.0 mg/kg/injection, schedule: Q01DX009 (ip), vehicle: saline with Tween-80 94 % of control | [3] 86 % of control | dose: 200.0 mg/kg/injection, schedule: Q01DX009 (ip), vehicle: saline with Tween-80 97 % of control | [4] 86 % of control | dose: 400.0 mg/kg/injection, schedule: Q01DX009 (ip), vehicle: saline with Tween-80 92 % of control | [5] 88 % of control

O=C(O)c1ccncc1C(=O)c1csc2ccccc12
inactive: dose: 25.0 mg/kg/injection, schedule: Q01DX009 (ip), vehicle: saline 108 % of control | dose: 50.0 mg/kg/injection, schedule: Q01DX009 (ip), vehicle: saline 102 % of control | dose: 50.0 mg/kg/injection, schedule: Q04DX003 (ip), vehicle: acetone 99 % of control | dose: 100.0 mg/kg/injection, schedule: Q01DX009 (ip), vehicle: saline 94 % of control | dose: 100.0 mg/kg/injection, schedule: Q04DX003 (ip), vehicle: acetone 99 % of control

Nc1ncnc2nccnc12
inactive: dose: 25.0 mg/kg/injection, schedule: Q01DX Z (ip), vehicle: saline 103 % of control | dose: 75.0 mg/kg/injection, schedule: Q01DX Z (ip), vehicle: saline 89 % of control

COc1ccccc1-n1c(O)c(N=Nc2ccc(Cl)cc2)c(=O)n(-c2ccc(C)cc2)c1=S
inactive: [11] 98 % of control | dose: 200.0 mg/kg/injection, schedule: Q01DX001 (ip), vehicle: Klucel (hydroxypropylcellulose) (HPC) 96 % of control | dose: 400.0 mg/kg/injection, schedule: Q01DX001 (ip), vehicle: Klucel (hydroxypropylcellulose) (HPC) 105 % of control

Reference: PubChem BioAssay AID248 (DTP/NCI, 2004)
